{"source": "patent US8541379B2", "about": "(Ajinomoto Co., Inc., priority 2009, dated 2013)", "key": {"[1]": {"assay": "Paired comparison sensory test, solution of miso", "assay_type": "in vivo, human", "conditions": "10.0% miso solution, N=9", "procedure": "More specifically, the sensory evaluation test was carried out according to the following procedures: Commercially available miso (ingredients: soybeans and barley) for popular use was dispersed in hot water in a concentration of 10.0% by mass to thus form a solution of miso. This solution was admixed with γ-Glu-Nva, γ-Glu-Cys-Gly, or γ-Glu-Abu as a test compound. According to the paired comparison test method (pair test), the panelists were requested to comparatively evaluate the following three samples and to judge whether “any of them was preferred or favorable since it could enhance the flavor and taste of the solution of miso without changing the balance between them”: (1) 0.02% by mass of γ-Glu-Cys-Gly whose kokumi-imparting activity was identical to 0.0004% by mass of γ-Glu-Nva; (2) 0.0004% by mass of γ-Glu-Abu, the amount of which was identical to 0.0004% by mass of γ-Glu-Nva; (3) 0.003% by mass of γ-Glu-Abu whose kokumi-imparting activity was identical to that observed for 0.0004% by mass of γ-Glu-Nva. The panelists used in this test were persons who had been engaged in the development of seasonings for foods over not less than one year of the cumulative time period and who could judge that the difference in the titer between γ-Glu-Cys-Gly and γ-Glu-Val-Gly added to a solution having umami/salty taste is about 10 times (while confirming the ability of these persons at regular intervals). The evaluation was carried out at N (the number of panelists used)=9."}, "[2]": {"assay": "Quantitative sensory evaluation test of kokumi-imparting activity", "assay_type": "in vivo, human", "conditions": "n=4", "procedure": "This quantitative sensory evaluation test was carried out according to the following procedures: The intensity of the kokumi-imparting activity observed for each test compound was determined as a value observed when blending 0.00001 to 0.5 g/dL of the corresponding test compound with the distilled water containing sodium glutamate (0.05 g/dL), inosinic acid monophosphate (0.05 g/dL), and sodium chloride (0.5 g/dL). […] The evaluation criteria are assumed to be as follows: control: 0 point; strong: 3 points; very strong: 5 points. Moreover, to clarify the criteria, the initial taste and the middle/after taste of γ-Glu-Val-Gly were set at 3.0 points, respectively. The scoring or rating was carried out using the method of line scale and more specifically, it was carried out by writing each corresponding score on a straight line on which points corresponding to −5˜0˜5 had been indicated. The panelists used in this test were defined to be persons who had been engaged in the development of seasonings for foods over not less than one year of the cumulative time period and who could judge that the difference in the titer between γ-Glu-Cys-Gly and γ-Glu-Val-Gly added to a solution having umami/salty taste is about 10 times (while confirming the ability of these persons at regular intervals). The evaluation was carried out at n (the number of panelists used)=4. The term “initial taste” means the taste which develops from 0 to 2 seconds after the sample is placed in the panelist's mouth, while the term “middle/after taste” means the taste which develops thereafter.\nIn addition, γ-Glu-Val-Gly, γ-Glu-Cys, γ-Glu-Val, γ-Glu-Ala and γ-Glu-Ser were likewise inspected for their kokumi-imparting effect according to the same procedures used above."}}, "note": "Marks after values point to notes of the source that are not given here.", "data": [{"smiles": "CCC[C@H](NC(=O)CC[C@H](N)C(=O)O)C(=O)O", "note": "[γ-Glu-Nva, γ-L-glutamyl-L-norvaline]", "values": [{"measurement": "No. of Panelists who judged γ-Glu-Nva rather preferred", "setting": "[1]; 0.0004 wt % γ-Glu-Nva vs 0.0004 wt % γ-Glu-Abu, significant level of 1%", "result": "9/9***"}, {"measurement": "No. of Panelists who judged γ-Glu-Nva rather preferred", "setting": "[1]; 0.0004 wt % γ-Glu-Nva vs 0.003 wt % γ-Glu-Abu, significant level of 1%", "result": "9/9***"}, {"measurement": "No. of Panelists who judged γ-Glu-Nva rather preferred", "setting": "[1]; 0.0004 wt % γ-Glu-Nva vs 0.02 wt % γ-Glu-Cys-Gly, significant level of 5%", "result": "8/9**"}, {"measurement": "Sensory Evaluation Profile", "setting": "[2]; 0.0001 g/dL in umami/salty solution", "result": "Mainly the initial and middle tastes"}, {"measurement": "Intensity of kokumi, Middle/After Taste", "setting": "[2]; 0.0001 g/dL in water with MSG 0.05, IMP 0.05, NaCl 0.5 g/dL", "result": 2.8, "unit": "points"}, {"measurement": "Intensity of kokumi, Initial Taste", "setting": "[2]; 0.0001 g/dL in water with MSG 0.05, IMP 0.05, NaCl 0.5 g/dL, scale control 0, strong 3, very strong 5", "result": 3.6, "unit": "points"}]}]}
